{
  "source": "patent US20220233561A1",
  "about": "“HUMAN MILK OLIGOSACCHARIDES FOR USE IN THE TREATMENT OF SYMPTOMS IN A PATIENT SUFFERING FROM NON-COELIAC WHEAT AND / OR GLUTEN SENSITIVITY” (GLYCOM A/S, priority 2016, published 2022)",
  "format_in_all_cases": "cell-based",
  "conditions_in_all_cases": "5 mg HMO/ml, compared to control cultures",
  "key": {"[1]": {"tested_on": "CHST5 expression in human LS174T cells", "assay": "Example 3: goblet cell gene expression by quantitative RT-PCR, CHST5", "protocol": "(§1) 2′-FL and LNnT are tested with respect to their ability to induce MUC2, TFF3, EIMβ, CHST5, and GAL3ST2 expression in the human LS174T cell culture model of goblet cells. The human LS174T cell line is obtained from the American Type Culture Collection (ATCC). LS174T cells are maintained in minimum essential medium (MEM) supplemented according to instructions at 37° C. in air containing 5% of CO2. 2′-FL and LNnT are dissolved in cell culture grade water to the required concentration. The LS174T cells are treated with the HMO solution containing 0 or 5 mg HMO/ml. The LS174T cells are collected and suspended in Trizol reagent and total RNA is isolated using an RNA analysis kit (Qiagen) according to the manufacturer's instructions and the RNA isolates are quantified using Nanodrop analysis (Thermo Fisher Scientific). RNA isolates are reverse transcribed using a high capacity cDNA Reverse Transcription Kit (Applied Biosystems) to create cDNA, which is then used to assess gene expression via quantitative RT-PCR. For the quantitative RT-PCR, specific TaqMAN gene expression assays are obtained from Applied Biosystems, which include expression assays for MUC2, TFF3, CHST5 and GAL3ST2. Quantitative real-time PCR is performed using TaqMAN PCR Master Mix (Applied Biosystems). […] The results are analysed using SDS 2.3 software and calculated by delta Ct method. […]"}, "[2]": {"tested_on": "TFF3 expression in human LS174T cells", "assay": "Example 3: goblet cell gene expression by quantitative RT-PCR, TFF3", "protocol": "as §1"}, "[3]": {"tested_on": "MUC2 expression in human LS174T cells", "assay": "Example 3: goblet cell gene expression by quantitative RT-PCR, MUC2", "protocol": "as §1"}, "[4]": {"tested_on": "GAL3ST2 expression in human LS174T cells", "assay": "Example 3: goblet cell gene expression by quantitative RT-PCR, GAL3ST2", "protocol": "as §1"}},
  "data": [
    {"smiles": "CC(=O)N[C@H]1[C@H](O[C@H]2[C@@H](O)[C@@H](CO)O[C@@H](O[C@H]3[C@H](O)[C@@H](O)C(O)O[C@@H]3CO)[C@@H]2O)O[C@H](CO)[C@@H](O[C@@H]2O[C@H](CO)[C@H](O)[C@H](O)[C@H]2O)[C@@H]1O", "note": "(mixture of isomers) [LNnT, lacto-N-neotetraose]", "values": [
      {"measurement": "CHST5 gene expression", "setting": "[1]", "value": "minimal induction"},
      {"measurement": "TFF3 gene expression", "setting": "[2]", "value": "increases the expression"},
      {"measurement": "MUC2 gene expression", "setting": "[3]", "value": "increases the expression"},
      {"measurement": "GAL3ST2 gene expression", "setting": "[4]", "value": "lack of induction"}
    ]}
  ]
}
